Measurements: patent publication US20110178118A1, “PALONOSETRON FOR THE TREATMENT OF CHEMOTHERAPY INDUCED EMESES” (priority 2002, published 2011)

Test system: cisplatin-induced emesis
Assay: Duration of action in cisplatin-treated dogs
Format: in vivo
Conditions: 0.04 mg/kg IV
Experimental: Mean numbers of episodes were computed and the statistical significance of differences between treatment groups were determined with Dunnett's t test. Solutions of palonosetron and comparator drugs (ondansetron and granisetron) were prepared in distilled water. Vehicle control groups received distilled water.

CN1C2CCCC1CC(NC(=O)c1nn(C)c3ccccc13)C2 (centres unmarked) [Granisetron]
antiemetic effect in duration of action experiments (1 to 12 hours before cisplatin): without antiemetic effect | Emetic Episodes (mean ± SD) (1 hr pre-cisplatin 3.0 mg/kg IV): 12.33 ± 4.32 | Emetic Episodes (mean ± SD) (2 hr pre-cisplatin 3.0 mg/kg IV): 9.67 ± 4.46 | Emetic Episodes (mean ± SD) (4 hr pre-cisplatin 3.0 mg/kg IV): 13.83 ± 7.25 | Emetic Episodes (mean ± SD) (6 hr pre-cisplatin 3.0 mg/kg IV): 21.33 ± 9.54 | Emetic Episodes (mean ± SD) (8 hr pre-cisplatin 3.0 mg/kg IV): 14.67 ± 8.69 | Emetic Episodes (mean ± SD) (10 hr pre-cisplatin 3.0 mg/kg IV): 23.00 ± 5.87 | Emetic Episodes (mean ± SD) (12 hr pre-cisplatin 3.0 mg/kg IV): 15.67 ± 6.28
